In patent US10308938B2, “Compositions and methods to activate or inhibit toll-like receptor signaling” (priority 2014, dated 2019):
Oligonucleotides are written 5' to 3', each unit as a sugar letter and its base; * is a phosphorothioate linkage, no mark a phosphodiester; rarer units and linkages stand in square brackets, end groups in braces. Plain capitals give the bases only. d = 2'-deoxy (DNA)

Key:
[1] = system: HIV-1^+CD4^+ T cells; assay: Anergy-related gene expression in in vitro HIV-1-infected CD4+ T cells; type: cell-based, human; settings: day seven after infection
Source text: (§1) Quantification of mRNA expression levels by RT-PCR. RNA was isolated using QIAGEN RNeasy Micro Plus Kit (QIAGEN, Valencia, Calif.), following manufacturer's guidelines and converted to cDNA by reverse transcription (RT) with random hexamers and Multiscribe RT (TQMN, Reverse Transcription Reagents; Applied Biosystems, Foster City, Calif.). For mRNA gene expression assays, probes were purchased from Applied Biosystems (Table 2) and the reactions were set up following manufacturer's guidelines and run on a StepOne Real-Time PCR System (Applied Biosystems). Values are represented as the difference in Ct values normalized to β2-microglobulin for each sample as per the following formula: Relative RNA expression=(2^−dCt)×1000.
To confirm this observation, the expression of anergy-related genes in in vitro HIV-1-infected CD4^+ T cells from five healthy donors in the presence of IRS661 (to inhibit TLR7) or a control sequence at day seven after infection was examined (FIG. 40).

[2] = system: HIV-1; settings: supernatants every three days, 14 days
Source text: CD4^+ T cells isolated from HIV-1 infected patients (Table 3) were stimulated in the presence of IRS661 (FIG. 50) or were transduced with two TLR7-specific shRNA (FIG. 51) with supernatant collections every three days for a total of 14 days to measure virus concentration by p24 ELISA.

[3] = system: HIV-1 (NL-432); assay: HIV-1 infection of humanized MISTRG mice, viral load; type: in vivo, mouse; settings: 20 μM IRS661 at day 0 or day 14 after infection
Procedure: Mouse experiments. MISTRG mice (Nature Biotechnology 2014; 32; 364-372) were infected with HIV-1 (50 ng p24) at day 0 in the presence of 20 μM IRS661 or control sequence (at either day 0 or day 14). Serum was obtained at different time points and RNA was isolated by Direct-zol RNA MiniPrep kit (Zymo Research). Viral load was measured by Gag amplification by Real Time PCR
In order to test the role of TLR7 inhibition in HIV-1 infection in vivo, a humanized mouse model (Rongvaux et al., Nat. Biotech., 32:364-372 (2014)) was used. Three groups of mice were infected with HIV-1 (NL-432): one control group, another group that was injected with IRS661 at the same time of HIV-1 infection (day 0), and a third group where IRS661 was injected at the peak of infection (day 14 after HIV-1 infection). […] For those mice that were injected with IRS661 at day 14 after infection (FIG. 55, white dots), viral load was measured at day 21 after infection. One mouse from the control group (black dots) died at day 17.

[4] = system: memory T cells; assay: IMQ pretreatment, washout, rest and restimulation with anti-CD3 and anti-CD28; type: cell-based, human; settings: IRS661 pretreated cells
Procedure: (§2) Enzyme-linked immunosorbent assay.
To determine if pretreatment of CD4^+ T cells with IMQ would be sufficient to diminish their subsequent cytokine secretion and proliferative response to a full stimulation, memory T cells were pre-treated with IMQ for 2 hours and rested for 12 hours after washout to remove traces of IMQ and then stimulated with anti-CD3 and anti-CD28 for 3 days.

[5] = system: CD4^+ T cells; assay: Anergy-related gene expression, TaqMan real-time PCR; type: cell-based, human; settings: preincubation with IRS661 before IMQ
Source text: as §1
To examine whether TLR7 stimulation and subsequent NFAT dephosphorylation induces the expression of anergy-related genes, CD4^+ T cells were incubated for 2-16 hours with IMQ in the presence or absence of the TLR7 inhibitory sequence IRS661 and RNA was isolated to examine the hypothesis that TLR7 engagement induced expression of anergy-related genes previously described. As a control for anergy-related gene expression, CD4^+ T cells were incubated with either ionomycin and PMA or ionomycin alone. […] The effect observed in the regulation of these genes was TLR7-specific, as preincubation of CD4^+ T cells with IRS661 before IMQ treatment abrogated the increase in anergy-related gene expression.

[6] = system: CD4^+ T cells; assay: Intracellular calcium measurement (INDO-1AM); type: cell-based, human
Procedure: Intracellular calcium measurements. Ex vivo isolated CD4^+ T cells were labeled with 5 μM INDO-1AM for one hour at 37° C. in PBS, 1 mM Ca^2+. Cells were washed to remove traces of INDO-1AM, resuspended in buffer at 10^6 cells/ml and incubated for 30 minutes at 37° C. before analysis. When necessary, IRS661 was added at the indicated concentration during the 30 minute incubation. For acquisition, the sample was acquired for approximately 3 minutes to obtain basal levels of calcium and subsequently IMQ or other reagents were added at the indicated concentrations. Samples were acquired for a minimum of 10 minutes on a BD Fortessa instrument and analysed with FlowJo software.

[7] = system: HIV-1; settings: day seven; compared to control cells
Procedure: Furthermore, proviral integrated DNA load was measured at day seven after stimulation in the presence of IRS661 or a control sequence (FIG. 52) and after transduction with TLR7-specific shRNA (FIG. 53) to monitor the cellular viral reservoir.

[8] = system: CD4^+ T cells; assay: Proliferation of CFSE-labeled CD4+ T cells stimulated with anti-CD3 and anti-CD28 in the presence of TLR ligands; type: cell-based, human; settings: for proliferation of CD4+ T cells (frequency of proliferating cells): compared to control; for inhibition of proliferation, level relative to IMQ: three days
Source text: Cell isolation and FACS sorting of T cell populations. Peripheral blood mononuclear cells (PBMC) were isolated from healthy donors by Ficoll Hypaque gradient centrifugation. Total CD4^+ T cells were isolated by negative selection using CD4^+ T cell isolation kit (StemCell Technologies, Vancouver, BC) and stained for fluorescence-activated cell sorting (FACS) with the following antibodies: anti-CD45RO (clone UCHL1), CD45RA (clone H1100), CD25 (clone M-A251) (all from BD Biosciences) and CD127 (clone eBioRDR5) from eBioscience (San Diego, Calif.). The Treg (CD4^+CD25^hiCD127^low/neg) memory T cell (CD4^+CD45RA^−CD45RO^+CD25^low/neg+) and naïve T cell (CD4^+CD45RA^+CD45RO^−CD25^low/neg) populations were sorted on a FACS Aria (BD Biosciences). Unless specified, CD4^+ T cells used in the experiments were Treg-depleted CD4^+ T cells and they were sorted as CD4^+CD25^pos/lowCD127^+. The purity of the sorted CD4^+ T cell population was >98% as assessed by CD3 and CD4 staining after sort. CD14^+ cells were isolated by positive selection using EasySep™ Human CD14 Positive Selection Kit (StemCell Technologies).
(§3) Cell activation and intracellular staining.
While examining the costimulatory role of TLR on CD4^+ T cells, it was unexpectedly discovered that entry of CD4^+ cells into cell cycle with T cell receptor cross-linking and anti-CD28 was blocked by TLR7 engagement. Specifically, CD4^+ T cells were stimulated with anti-CD3 and anti-CD28 in the presence of different TLR agonists followed by analysis of proliferation and cytokine secretion.

[9] = system: CD4^+ T cells; assay: Cytokine secretion by stimulated CD4+ T cells, ELISA; type: cell-based, human; settings: day 3 after stimulation
Source text: as §3, §2

[10] = system: HIV-1NL-D; assay: HIV-1 in vitro infection of CD4+ T cells; type: cell-based; settings: for frequency of HIV-1-infected CD4+ T cells: treatment before infection, MOI 0.001
Procedure: Preparation of HIV-1 virus stocks. HIV-1 proviral DsRed-tagged DNA pNL-D (derived from the prototype HIV-1 proviral DNA pNL432) was kindly provided by Dr. Yasuko Tsunetsugu-Yokota. 293T cells were used to prepare viral stocks following published protocols with minor modifications. In brief, 293T cells were plated at 0.5×10^6/well in 12-well plates and transfected with 2 μg pNL-D using Lipofectamine 2000 (Invitrogen) for 48 hours. Culture supernatant was treated with benzonase (1U/ml) for 30 minutes at 37 C, cleared by filtration and titrated on 293T cells. Stocks were stored at −80 C.
HIV-1 in vitro infection. CD4^+ T cells were stimulated with anti-CD3 (1 μg/ml) and anti-CD28 (1 μg/ml) for 48 hours and subsequently infected with HIV-1 at a MOI of 0.001 (concentration within the physiological range). Viability and cytokine secretion was measured every 48 hours for a total of 11 days after infection.
For HIV-1 infection on TLR7-deficient cells, CD4^+ T cells were stimulated as above and transduced with the corresponding lentiviral particles. 48 hours after transduction, the cells were infected with HIV-1NL-D at a MOI of 0.001. Viability and frequency of HIV-1-infected cells were measured at different time points by LIVE/DEAD cell dye staining and fixation with 1% PFA (to avoid DsRed signal loss). For intracellular staining after infection, the cells were restimulated with PMA and Ionomycin in the presence of GolgiStop for 4 hours and the staining was performed as recommended by Grupillo et al.

5′-TGCTTGCAAGCTTGCAAGCA-3′ (DNA dT*dG*dC*dT*dT*dG*dC*dA*dA*dG*dC*dT*dT*dG*dC*dA*dA*dG*dC*dA) [IRS661]
expression of 12 anergy-related genes in HIV-1+CD4+ T cells [1]: did not upregulate any of these genes
concentration of p24 in culture [2]: strongly decreased
HIV-1 viral load [3]: decreases
IMQ-induced decrease of IFNγ production [4]: not observed
IMQ-induced decrease of IL-2 production [4]: not observed
IMQ-induced increase in anergy-related gene expression [5]: abrogated
increase in calcium concentration upon IMQ stimulation ([6]; pre-incubation with IRS661): impaired
proviral DNA load [7]: dramatic decrease

CCCCNc1nc(N)c2[nH]c(=O)n(Cc3ccc(C(=O)NCC(=O)O)cc3)c2n1 [CL264]
proliferation of CD4+ T cells (frequency of proliferating cells) [8]: significant decrease
IFNγ secretion [9]: inhibited
IL-2 secretion [9]: inhibited
IL-4 secretion [9]: inhibited
IL-17 secretion [9]: inhibited

CCNCc1nc2c(N)nc3ccccc3c2n1CC(C)(C)O [Gardiquimod]
proliferation of CD4+ T cells (frequency of proliferating cells) [8]: significant decrease
inhibition of proliferation, level relative to IMQ [8]: comparable to IMQ treatment
IFNγ secretion [9]: inhibited
IL-2 secretion [9]: inhibited
IL-4 secretion [9]: inhibited
IL-17 secretion [9]: inhibited

C=CCn1c(=O)n([C@@H]2O[C@H](CO)[C@@H](O)[C@H]2O)c2nc(N)[nH]c(=O)c21 [Loxoribine]
proliferation of CD4+ T cells (frequency of proliferating cells) [8]: significant decrease
inhibition of proliferation, level relative to IMQ [8]: comparable to IMQ treatment
IFNγ secretion [9]: inhibited
IL-2 secretion [9]: inhibited
IL-4 secretion [9]: inhibited
IL-17 secretion [9]: inhibited

COc1cc(N(CC(=O)OCOC(C)=O)CC(=O)OCOC(C)=O)c2nc(COc3cc(C)ccc3N(CC(=O)OCOC(C)=O)CC(=O)OCOC(C)=O)ccc2c1 [Quin-2 AM]
frequency of viable cells [10]: significantly decreased
frequency of HIV-1-infected CD4+ T cells [10]: marked decrease

C[C@H](CCC(=O)O)C[C@H](C)C[C@H](C)C(=O)/C=C(\O)[C@H](C)C[C@H](C)C/C=C/[C@@H](C)[C@@H](O)[C@@H](C)[C@@H](O)C[C@@H]1CC[C@@](C)([C@H]2CC[C@@](C)([C@@H](C)O)O2)O1 [ionomycin]
frequency of HIV-1-infected CD4+ T cells [10]: increased

Poly(I:C)
intracellular calcium concentration ([6]; INDO-1AM ratio over time): not observed
